According to patent US9290440B2, “Bicyclic compound” (TOA EIYO LTD., priority 2012, dated 2016):
Read-outs that look alike come from different tables or passages of the source.

Legend:
[1] = molecular target: T1, human sGC α subunit and β subunit (Homo sapiens, UniProt Q02153); assay: Heme-independent property of sGC activating function (EC50 ratio, CHO-K1 cells expressing human sGC and mouse CNGA2); type: cell-based; conditions: EC50 in the absence of ODQ divided by EC50 in the presence of ODQ, sGC activation
T1 construct: expressed in transfected cells
T1 sequence (Q02153 1-619): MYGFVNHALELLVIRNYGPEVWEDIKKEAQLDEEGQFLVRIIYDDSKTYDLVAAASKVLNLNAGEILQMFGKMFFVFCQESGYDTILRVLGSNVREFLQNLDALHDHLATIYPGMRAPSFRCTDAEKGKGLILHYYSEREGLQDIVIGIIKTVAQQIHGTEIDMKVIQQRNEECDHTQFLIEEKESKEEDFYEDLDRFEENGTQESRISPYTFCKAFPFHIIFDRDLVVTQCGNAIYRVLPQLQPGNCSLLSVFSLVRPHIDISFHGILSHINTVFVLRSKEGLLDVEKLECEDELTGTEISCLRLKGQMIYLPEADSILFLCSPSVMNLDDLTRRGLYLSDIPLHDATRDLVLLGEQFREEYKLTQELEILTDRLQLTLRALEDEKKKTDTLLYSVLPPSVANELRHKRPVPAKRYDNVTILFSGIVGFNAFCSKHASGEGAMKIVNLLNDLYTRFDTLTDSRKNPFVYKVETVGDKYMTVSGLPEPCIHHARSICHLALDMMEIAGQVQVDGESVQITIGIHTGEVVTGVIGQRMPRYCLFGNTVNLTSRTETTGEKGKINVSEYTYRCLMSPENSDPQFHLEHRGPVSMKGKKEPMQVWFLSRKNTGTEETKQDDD
T1 sequence (Q02108 1-690 partner): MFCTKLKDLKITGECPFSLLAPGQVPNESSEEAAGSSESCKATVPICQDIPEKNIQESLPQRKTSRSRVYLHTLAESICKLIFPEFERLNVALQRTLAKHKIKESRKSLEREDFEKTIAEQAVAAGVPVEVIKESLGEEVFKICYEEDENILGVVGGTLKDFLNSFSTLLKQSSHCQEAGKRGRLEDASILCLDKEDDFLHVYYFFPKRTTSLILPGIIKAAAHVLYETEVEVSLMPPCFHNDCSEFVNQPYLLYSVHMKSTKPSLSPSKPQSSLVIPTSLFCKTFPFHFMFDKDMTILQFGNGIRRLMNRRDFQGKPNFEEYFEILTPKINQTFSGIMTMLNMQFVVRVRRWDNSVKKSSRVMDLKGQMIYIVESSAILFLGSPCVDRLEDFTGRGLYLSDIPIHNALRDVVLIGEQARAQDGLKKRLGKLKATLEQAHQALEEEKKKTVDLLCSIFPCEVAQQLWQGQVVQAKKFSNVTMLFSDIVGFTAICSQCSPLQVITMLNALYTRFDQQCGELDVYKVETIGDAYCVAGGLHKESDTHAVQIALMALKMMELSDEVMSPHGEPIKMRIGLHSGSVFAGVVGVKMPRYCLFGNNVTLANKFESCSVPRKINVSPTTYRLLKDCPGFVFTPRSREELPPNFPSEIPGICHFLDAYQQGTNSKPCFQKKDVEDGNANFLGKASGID
Method: (§1) For the assay, Chinese hamster ovary cells (CHO-K1 cells) in which human sGC α subunit and β subunit and mouse cyclic nucleotide gated channel (CNGA2) are stably expressed were used.
(§2) CHO-K1 cells in which human sGC and mouse CNGA2 are stably expressed were cultured at 37° C. in F-12 medium containing 10% (v/v) fetal bovine serum (FBS), penicillin (100 U/mL), streptomycin (100 μg/mL), G418 (250 μg/mL), and zeocin (250 μg/mL). The cells were suspended in the culture medium and seeded onto a 96-well plate, and then cultured at 37° C. for 24 hours. After washing with assay buffer 1 (140 mmol/L sodium chloride, 5 mmol/L potassium chloride, 0.5 mmol/L magnesium chloride, 0.01 mmol/L calcium chloride, 10 mmol/L glucose, 0.4 mmol/L magnesium sulfate, 10 mmol/L 4-(2-hydroxyethyl)piperazin-1-ylethane sulfonic acid, and 125 μmol/L sulfinpyrazone, pH 7.4), an indicator solution in which FURA2-AM as a fluorescent Ca^2+ indicator is dissolved at concentration of 5 μmol/L in assay buffer 1 was added followed by culture for 60 minutes at 37° C. The indicator solution was removed. After washing with assay buffer 1, the test compound solution was added and incubated for 10 minutes at room temperature. The plate was placed in a fluorometer (Flex Station II, Molecular Devices, LLC), and then the intracellular calcium concentration was measured as fluorescence intensity ratio which is obtained from each excitation wavelength (excitation wavelength of 340 nm and 380 nm and detection wavelength of 510 nm).
(§3) The test compound solution was prepared by dissolving each of the test compounds in DMSO to a concentration of 10 mmol/L, and then adding the assay buffer 2 (140 mmol/L sodium chloride, 5 mmol/L potassium chloride, 0.5 mmol/L magnesium chloride, 1 mmol/L calcium chloride, 10 mmol/L glucose, 0.4 mmol/L magnesium sulfate, 10 mmol/L 4-(2-hydroxyethyl)piperazin-1-ylethane sulfonic acid, 125 μmol/L sulfinpyrazone, 100 μmol/L isobutylmethylxanthine, 10 μmol/L 1H-[1,2,4]-oxadiazole[4,3-a]quinoxalin-1-one (hereinbelow, ODQ), pH 7.4) for dilution to have test concentration of 10 μmol/L. For the evaluation of a case in which ODQ is not contained, the same evaluation was performed except that ODQ is excluded from assay buffer 2. As a control solution, a DMSO solution was used instead of the test compound solution.
(§4) The activity of the test compound corresponds to the increase ratio (%) of the sGC activity at the time of adding the test compound solution with respect to the sGC activity at the time of adding the control solution, and it was calculated by dividing the fluorescence intensity ratio at the time of adding the test compound by the fluorescence intensity ratio of the control solution and subtracting the sGC activity (100%) at the time of adding the control solution.
For the representative compounds, activity was measured in the same manner as Test Example 1 at each test concentration of 0.0001, 0.001, 0.003, 0.01, 0.03, 0.1, 1, and 10 μmol/L.
The degree of heme-independent property of each test compound with regard to sGC activating function was obtained by dividing, for EC50 measured from the concentration-activation curve which has been established from the above, EC50 in the absence of ODQ by EC50 in the presence of ODQ. Specifically, the smaller the EC50 ratio is, the less the change in sGC activating function is, the change in the function being caused by the presence or absence of ODQ, and thus it is found to be more heme-independent.
EC50 value was obtained by measuring the activity of each compound to be tested at concentrations of 0.0001, 0.001, 0.003, 0.01, 0.03, 0.1, 1, and 10 μmol/L and performing the calculation using four-parameter logistics model using Assay Explorer (Accelrys).

[2] = molecular target: T1, human sGC α subunit and β subunit; assay: Maximum effect of sGC activating function (Ca2+ fluorescence in CHO-K1 cells expressing human sGC and mouse CNGA2); type: cell-based; conditions: increase ratio of sGC activity vs control solution at 10 μmol/L test compound
Method: as §1, §2, §3, §4
In this assay, intracellular cGMP concentration increases as sGC is activated, and according to opening of CNGA2 following the increase of cGMP, intracellular Ca^2+ concentration increases. Thus, SGC activation can be measured by following the change in intracellular Ca^2+ concentration. […] Thus, in the absence of ODQ, the maximum sGC activating function including the heme-dependent activation can be evaluated while the heme-independent sGC activating function can be evaluated in the presence of ODQ.

[3] = ODQ not contained, read-out: Emax (%) ODQ− (Heme-dependent)
[4] = with 10 μmol/L ODQ, read-out: Emax (%) ODQ+ (Heme-independent)

O=C(O)CCCCN(CCc1ccccc1OCc1ccc(CCc2ccccc2)cc1)C1CCc2cc(C(=O)O)ccc21 (stereo not drawn) [Example 1, 1-{N-(4-Carboxybutyl)-N-[2-[2-[4-(2-phenylethyl)benzyloxy]phenyl]ethyl]amino}indane-5-carboxylic acid]
EC50 Ratio (ODQ−/ODQ+) [1]: 2.86 | Emax at 10 µM [2, 3]: 85.6% | Emax at 10 µM [2, 4]: 103%

O=C(O)CCCCN(CCc1ccccc1OCc1ccc(CCc2ccccc2)cc1)C1CCCc2cc(C(=O)O)ccc21 (stereo not drawn) [Example 2, 5-{N-(4-Carboxybutyl)-N-[2-[2-[4-(2-phenylethyl)benzyloxy]phenyl]ethyl]amino}-5,6,7,8-tetrahydronaphthalene-2-carboxylic acid]
EC50 Ratio (ODQ−/ODQ+) [1]: 2.67 | Emax at 10 µM [2, 3]: 97.5% | Emax at 10 µM [2, 4]: 109%

O=C(O)CCCCN(CCc1ccccc1OCc1ccc(CCc2ccccc2)cc1)C1CCCCc2cc(C(=O)O)ccc21 (stereo not drawn) [Example 3, 5-{N-(4-Carboxybutyl)-N-[2-[2-[4-(2-phenylethyl)benzyloxy]phenyl]ethyl]amino}-6,7,8,9-tetrahydro-5H-benzocycloheptene-2-carboxylic acid]
EC50 Ratio (ODQ−/ODQ+) [1]: 2.54 | Emax at 10 µM [2, 3]: 102% | Emax at 10 µM [2, 4]: 111%

O=C(O)CCCCN(CCc1ccccc1OCc1ccc(CCc2ccccc2)cc1)C1CCOc2cc(C(=O)O)ccc21 (stereo not drawn) [Example 4, 4-{N-(4-Carboxybutyl)-N-[2-[2-[4-(2-phenylethyl)benzyloxy]phenyl]ethyl]amino}chromane-7-carboxylic acid]
EC50 Ratio (ODQ−/ODQ+) [1]: 2.85 | Emax at 10 µM [2, 3]: 114% | Emax at 10 µM [2, 4]: 109%

O=C(O)CCCCN(CCc1ccccc1OCc1ccc(CCc2ccccc2)cc1)C1CCSc2cc(C(=O)O)ccc21 (stereo not drawn) [Example 5, 4-{N-(4-Carboxybutyl)-N-[2-[2-[4-(2-phenylethyl)benzyloxy]phenyl]ethyl]amino}thiochromane-7-carboxylic acid]
Emax at 10 µM [2, 3]: 84.5% | Emax at 10 µM [2, 4]: 86.9%

O=C(O)CCCCN(CCc1ccccc1OCc1ccccc1Cl)C1CCCc2cc(C(=O)O)ccc21 (stereo not drawn) [Example 13, 5-{N-(4-Carboxybutyl)-N-[2-[2-(2-chlorobenzyloxyl)phenyl]ethyl]amino}-5,6,7,8-tetrahydronaphthalene-2-carboxylic acid]
Emax at 10 µM [2, 3]: 64.2% | Emax at 10 µM [2, 4]: 87.2%

O=C(O)CCCCN(CCc1ccccc1OCc1ccc(COc2ccccc2)cc1)C1CCCc2cc(C(=O)O)ccc21 (stereo not drawn) [Example 16, 5-{N-(4-Carboxybutyl)-N-[2-[2-(4-phenoxymethylbenzyloxy)phenyl]ethyl]amino}-5,6,7,8-tetrahydronaphthalene-2-carboxylic acid]
Emax at 10 µM [2, 3]: 116% | Emax at 10 µM [2, 4]: 97.5%

O=C(O)CCCCN(CCc1ccccc1OCc1ccc(CSc2ccccc2)cc1)C1CCCc2cc(C(=O)O)ccc21 (stereo not drawn) [Example 17, 5-{N-(4-Carboxybutyl)-N-[2-[2-(4-phenylsulfanylmethylbenzyloxy)phenyl]ethyl]amino}-5,6,7,8-tetrahydronaphthalene-2-carboxylic acid]
Emax at 10 µM [2, 3]: 115% | Emax at 10 µM [2, 4]: 91.8%

C#Cc1ccc(COc2ccccc2CCN(CCCCC(=O)O)C2CCCc3cc(C(=O)O)ccc32)cc1 (stereo not drawn) [Example 19, 5-{N-(4-Carboxybutyl)-N-[2-[2-(4-ethynylbenzyloxy)phenyl]ethyl]amino}-5,6,7,8-tetrahydronaphthalene-2-carboxylic acid]
Emax at 10 µM [2, 3]: 88.7% | Emax at 10 µM [2, 4]: 88%

O=C(O)CCCCN(CCc1ccccc1OCc1ccc(C#CC2CCCCC2)cc1)C1CCCc2cc(C(=O)O)ccc21 (stereo not drawn) [Example 22, 5-{N-(4-Carboxybutyl)-N-[2-[2-(4-cyclohexylethynylbenzyloxy)phenyl]ethyl]amino}-5,6,7,8-tetrahydronaphthalene-2-carboxylic acid]
Emax at 10 µM [2, 3]: 108% | Emax at 10 µM [2, 4]: 100%

O=C(O)CCCCN(CCc1ccccc1OCc1ccc(CCC2CCCCC2)cc1)C1CCCc2cc(C(=O)O)ccc21 (stereo not drawn) [Example 24, 5-{N-(4-Carboxybutyl)-N-[2-[2-[4-(2-cyclohexylethyl)benzyloxy]phenyl]ethyl]amino}-5,6,7,8-tetrahydronaphthalene-2-carboxylic acid]
Emax at 10 µM [2, 3]: 135% | Emax at 10 µM [2, 4]: 114%

O=C(O)CCCCN(CCc1ccccc1OC[C@H]1CC[C@H](CCc2ccccc2)CC1)C1CCCc2cc(C(=O)O)ccc21 (stereo partly drawn) [Example 26, 5-{N-(4-Carboxybutyl)-N-[2-[2-[trans-4-(2-phenylethyl)cyclohexylmethoxy]phenyl]ethyl]amino}-5,6,7,8-tetrahydronaphthalene-2-carboxylic acid]
Emax at 10 µM [2, 3]: 119% | Emax at 10 µM [2, 4]: 86.9%

CC(C)(C)c1cccc(COc2ccccc2CCN(CCCCC(=O)O)C2CCCc3cc(C(=O)O)ccc32)c1 (stereo not drawn) [Example 41, 5-{N-[2-[2-(3-tert-Butylbenzyloxy)phenyl]ethyl]-N-(4-carboxybutyl)amino}-5,6,7,8-tetrahydronaphthalene-2-carboxylic acid]
Emax at 10 µM [2, 3]: 109% | Emax at 10 µM [2, 4]: 140%
